Test results: US4465683A, “Anti-psychotic agents” (priority 1979, dated 1984)
Counter-ions that a name gives are not always drawn. Like-named read-outs stand apart in the source and are kept apart here.

Key:
[1] = tested on: conditioned avoidance response (CAR); test: conditioned avoidance response (CAR) in rats, shuttle box technique, oral; format: in vivo; details: Rattus norvegicus, read-out: ORAL CAR-ED50
Method: The apparatus employed is a box having a six-inch barrier separating two equal compartments. The floor of the left side of the box contains an electrified grid by means of which an intermittent shock is administered. The other side is not electrified. Rats are trained by placing them individually in the electrified compartment of the box and administering a foot shock which causes the rat to jump the barrier to the non-electrified side. […] The test drug is then administered in various doses to different groups of rats and the effect of the treatment in terms of the number of rats which fail to jump the barrier before receiving a foot shock is measured. That dose of test drug which will reduce the number of conditioned animals jumping the barrier before receiving a foot shock by one-half is referred to as the CAR-ED50.

reserpine ptosis = test: Prevention of reserpine ptosis in mice (anti-depressant); format: in vivo
pernicious preening = test: Prevention of pernicious preening in mice (anti-psychotic or analgetic); format: in vivo; details: Mus musculus, po
phenylquinone writhing = test: Reduction of phenylquinone writhing in mice (analgesic); format: in vivo; details: Mus musculus, po
[2] = U.S. Pat. No. 3,381,009; cited from earlier work
schizophrenic patients = details: et al. (1973), cited from earlier work
[3] = compared with imipramine; cited from earlier work
[4] = rats, oral, dose reducing by one-half the number of conditioned animals jumping the barrier before foot shock

In the case of `CN(C)CCCN1c2ccccc2Sc2ccc(Cl)cc21` [Chlorpromazine], the ED50 ([1]; po) is reported as 38.7 mg/kg.
`COc1ccccc1N1CCN(CCCCn2nc3ccccn3c2=O)CC1` [Formula I, R^1 = H, R^2 = 2-CH3 O, 2-[4-[4(2-Methoxphenyl)-1-piperazinyl]-butyl]-1,2,4-triazolo[4,3-a]pyridin-3-(2H)-one Hydrochloride] showed an ED50 [1, 4] of 18.4 mg/kg.
For `Cl.O=c1n(CCCCN2CCN(c3cccc(C(F)(F)F)c3)CC2)nc2ccccn12` [Formula I, R^1 = H, R^2 = 3-CF3, 2-[4-[4-[3-(Trifluoromethyl)phenyl]-1-piperazinyl]butyl]-1,2,4-triazolo[4,3-a]pyridin-3(2H)-one Hydrochloride], the ED50 [1, 4] was 11.4 mg/kg.
In the case of `O=c1n(CCCCN2CCN(c3cccc(Cl)c3)CC2)nc2ccccn12` [Formula I, R^1 = H, R^2 = 3-Cl, 2-[4-[4-(3-Chlorophenyl)piperazin-1-yl]butyl]-1,2,4-triazolo[4,3-a]pyridin-3-(2H)-one], the “activity in prevention of reserpine ptosis” value (reserpine ptosis; at 15.7 mg/kg (p.o.)) is reported as “inactive”, the ED50 [1, 4] is reported as 9 mg/kg and the ED50 (pernicious preening) is reported as 8 mg/kg. For the same compound, the ED50 (phenylquinone writhing) was 23 mg/kg.
For `O=c1n(CCCN2CCN(c3cccc(Cl)c3)CC2)nc2ccccn12` [Trazodone, 2-[3-[4-(3-chlorophenyl)-1-piperazinyl]-propyl]-1,2,4-triazolo[4,3-a]pyridin-3(2H)-one], the ED50 (reserpine ptosis; Mus musculus, po) is given as 36 mg/kg, the ED50 [1, 4] is given as 45.4 mg/kg and the “pharmacological actions in animal tests” value [2] is given as “tranquilizing action, hypotensive action, and analgesic action”. The “effect on depressive symptoms exhibited by schizophrenics” value (schizophrenic patients; Ban) was “improvement in depressive symptoms”, the “anti-psychotic action in schizophrenic patients” value (schizophrenic patients; Galvan) was “minimal” and the clinical antidepressant effectiveness [3] was “equivalent in effectiveness to imipramine”. For the same compound, the “side effects in clinical use” value [3] was “fewer side effects” and the ED50 (pernicious preening) was 43 mg/kg.
